Measurements: patent publication US7964724B2, “Chiral cis-imidazolines” (Hoffmann-La Roche Inc., priority 2004, dated 2011)
Where a name gives a salt, the structure may show the parent alone.

biological target: interaction between p53 and MDM2 proteins (recombinant GST-tagged MDM2 / biotinylated p53-peptide) (Homo sapiens, UniProt Q00987); assay: HTRF assay of inhibition of the p53-MDM2 interaction (In Vitro Activity Assay); format: binding
Procedure: The ability of the compounds to inhibit the interaction between p53 and MDM2 proteins was measured by an HTRF (homogeneous time-resolved fluorescence) assay in which recombinant GST-tagged MDM2 binds to a peptide that resembles the MDM2-interacting region of p53 (Lane et al.). Binding of GST-MDM2 protein and p53-peptide (biotinylated on its N-terminal end) is registered by the FRET (fluorescence resonance energy transfer) between Europium (Eu)-labeled anti-GST antibody and streptavidin-conjugated Allophycocyanin (APC). Test is performed in black flat-bottom 384-well plates (Costar) in a total volume of 40 uL containing: 90 nM biotinylate peptide, 160 ng/ml GST-MDM2, 20 nM streptavidin-APC (PerkinElmerWallac), 2 nM Eu-labeled anti-GST-antibody (PerkinElmerWallac), 0.2% bovine serum albumin (BSA), 1 mM dithiothreitol (DTT) and 20 mM […] (TBS) buffer as follows: Add 10 uL of GST-MDM2 (640 ng/ml working solution) in reaction buffer to each well. Add 10 uL dilution compounds (1:5 dilution in reaction buffer) to each well, mix by shaking, Add 20 uL biotinylated p53 peptide (180 nM working solution) in reaction buffer to each well and mix on shaker. Incubate at 37° C. for 1 h. Add 20 uL streptavidin-APC and Eu-anti-GST antibody mixture (6 nM Eu-anti-GST and 60 nM streptavidin-APC working solution) in TBS buffer with 0.2% BSA, shake at room temperature for 30 minutes and read using a TRF-capable plate reader at 665 and 615 nm (Victor 5, Perkin ElmerWallac). If not specified, the reagents were purchased from Sigma Chemical Co.

interaction between p53 and MDM2 proteins (recombinant GST-tagged MDM2 / biotinylated p53-peptide), sequence (Q00987 whole entry): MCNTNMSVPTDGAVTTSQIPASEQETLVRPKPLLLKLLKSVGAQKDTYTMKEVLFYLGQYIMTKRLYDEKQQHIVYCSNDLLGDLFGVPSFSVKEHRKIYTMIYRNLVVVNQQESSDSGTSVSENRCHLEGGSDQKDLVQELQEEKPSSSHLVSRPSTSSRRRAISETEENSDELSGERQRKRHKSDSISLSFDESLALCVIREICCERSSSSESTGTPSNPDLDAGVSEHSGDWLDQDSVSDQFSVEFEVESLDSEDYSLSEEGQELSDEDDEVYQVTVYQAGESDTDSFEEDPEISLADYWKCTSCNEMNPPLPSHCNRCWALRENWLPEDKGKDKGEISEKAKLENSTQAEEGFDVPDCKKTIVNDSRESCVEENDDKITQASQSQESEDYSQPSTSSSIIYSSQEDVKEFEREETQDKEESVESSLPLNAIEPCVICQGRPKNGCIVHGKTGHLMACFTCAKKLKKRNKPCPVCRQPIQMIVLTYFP

In order of rising IC50:
1. C#Cc1ccc([C@@H]2[C@H](c3ccc(C#C)cc3)N=C(c3ccc(C(C)(C)C)cc3OCC)N2C(=O)N2CCN(CCS(C)(=O)=O)CC2)cc1 [Example 35, [(4S,5R)-2-(4-tert-Butyl-2-ethoxy-phenyl)-4,5-bis-(4-ethynyl-phenyl)-4,5-dihydro-imidazol-1-yl]-[4-(2-methanesulfonyl-ethyl)-piperazin-1-yl]-methanone hydrochloride]  11 nM
2. CCOc1cc(C(C)(C)C)ccc1C1=N[C@@H](c2ccc(Cl)cc2)[C@@H](c2ccc(Cl)cc2)N1C(=O)N1CCC(N2CCCC2)CC1 [Example 74, [(4S,5R)-2-(4-tert-Butyl-2-ethoxy-phenyl)-4,5-bis-(4-chloro-phenyl)-4,5-dihydro-imidazol-1-yl]-(4-pyrrolidin-1-yl-piperidin-1-yl)-methanone hydrochloride]  24 nM
3. CCOc1cc(C(C)(C)C)ccc1C1=N[C@@H](c2ccc(F)cc2)[C@@H](c2ccc(F)cc2)N1C(=O)N1CCN(CCS(C)(=O)=O)CC1 [Example 26, [(4S,5R)-2-(4-tert-Butyl-2-ethoxy-phenyl)-4,5-bis-(4-fluoro-phenyl)-4,5-dihydro-imidazol-1-yl]-[4-(2-methanesulfonyl-ethyl)-piperazin-1-yl]-methanone hydrochloride]  60 nM
4. CCOc1cc(C(C)(C)C)ccc1C1=N[C@@H](c2ccc(F)cc2)[C@@H](c2ccc(F)cc2)N1C(=O)N1CCNC(=O)C1 [Example 27, 4-[(4S,5R)-2-(4-tert-Butyl-2-ethoxy-phenyl)-4,5-bis-(4-fluoro-phenyl)-4,5-dihydro-imidazole-1-carbonyl]-piperazin-2-one hydrochloride]  3100 nM
